From patent US10940139B2, “Compounds that interact with the Ras superfamily for the treatment of cancers, inflammatory diseases, rasopathies, and fibrotic disease” (Shy Therapeutics LLC, priority 2017, dated 2021)

Assays:
[1] = molecular target: KRas G12D/Q61H double mutant (Homo sapiens (Human), UniProt P01116, G12D/Q61H); test: Ras GTP binding domain inhibition assay (labeled GTP); details: at 20 μM; read-out: KRas G12D Q61H % Inh.
Procedure, shortened: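 Fluorescence read-out of Cy3-/Cy5-GTP remaining bound to nickel-immobilized His-KRas after washes. Protein was coated overnight at 4° C, then exposed to compound for 3 h at room temperature before a 45 min labeled-GTP incubation.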

Rac-1 = Rac-1 (Homo sapiens (Human), UniProt P63000); test: Rac inhibition assay (labeled GTP); format: binding; details: read-out: Rac-1 % Inh.
Rho-A = Rho-A (Homo sapiens (Human), UniProt P61586); test: Rho inhibition assay (labeled GTP); format: binding; details: read-out: Rho-A % Inh.
Sequence of Rho-A (P61586 whole entry): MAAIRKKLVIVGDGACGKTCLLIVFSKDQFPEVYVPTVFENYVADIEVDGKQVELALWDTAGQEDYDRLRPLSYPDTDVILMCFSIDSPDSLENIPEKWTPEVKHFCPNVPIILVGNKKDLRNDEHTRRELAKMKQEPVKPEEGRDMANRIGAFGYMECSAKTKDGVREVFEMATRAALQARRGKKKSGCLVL

Sequence of KRas G12D/Q61H double mutant (P01116-2 other isoform, or with tags, fused parts or gaps G12D/Q61H): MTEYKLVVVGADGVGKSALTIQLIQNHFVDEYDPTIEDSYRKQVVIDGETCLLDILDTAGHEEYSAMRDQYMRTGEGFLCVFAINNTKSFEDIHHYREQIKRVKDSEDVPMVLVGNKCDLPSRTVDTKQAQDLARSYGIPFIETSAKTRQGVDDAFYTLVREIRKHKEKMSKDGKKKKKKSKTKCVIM

inhibition at 20 µM [1] [%] | inhibition at 20 µM (Rac-1) [%] | inhibition at 20 µM (Rho-A) [%] | Structure (SMILES)
1 to 25 | 1 to 25 | 51 to 75 | O=C(c1csc2c(O)nc(-c3ccccn3)nc12)N1CCOC(c2cccc(Cl)c2)C1 (stereo not drawn) [drawing 3659]
25 to 50 | 76 to 100 | 76 to 100 | O=C(c1csc2c(O)nc(-c3ccccn3)nc12)N1CCOC(Cc2ccccc2)C1 (stereo not drawn) [drawing 3660]
25 to 50 | 1 to 25 | 76 to 100 | COc1ccccc1C1CN(C(=O)c2csc3c(O)nc(-c4ccccn4)nc23)CCN1 (stereo not drawn) [drawing 3661]
1 to 25 | 76 to 100 | 76 to 100 | COc1ccc(C2CN(C(=O)c3csc4c(O)nc(-c5ccccn5)nc34)CCN2)cc1 (stereo not drawn) [drawing 3663]
25 to 50 | 76 to 100 | 76 to 100 | O=C(c1csc2c(O)nc(-c3ccccn3)nc12)N1CCNC(c2ccccc2F)C1 (stereo not drawn) [drawing 3665]
1 to 25 | 76 to 100 | 76 to 100 | Cn1cc(C2CN(C(=O)c3csc4c(O)nc(-c5ccccn5)nc34)CCN2)cn1 (stereo not drawn) [drawing 3666]
25 to 50 | 76 to 100 | 76 to 100 | O=C(c1csc2c(O)nc(-c3ccccn3)nc12)N1CCNC(Cc2ccccc2)C1 (stereo not drawn) [drawing 3667]
0 | 76 to 100 | 51 to 75 | O=C(NCCc1ccncc1)c1csc2nc(-c3ccccn3)nc(N3CCOCC3)c12 [drawing 3668]
1 to 25 | 51 to 75 | 25 to 50 | COc1ccncc1CCNC(=O)c1csc2nc(-c3ccccn3)nc(N3CCOCC3)c12 [drawing 3669]
0 | 76 to 100 | 51 to 75 | COc1cc(CCN(C)C(=O)c2csc3nc(-c4ccccn4)nc(N4CCOCC4)c23)ccn1 [drawing 3670]
1 to 25 | 25 to 50 | 25 to 50 | O=C(NCCc1ccnc(O)c1)c1csc2nc(-c3ccccn3)nc(N3CCOCC3)c12 [drawing 3672]
1 to 25 | 51 to 75 | 51 to 75 | O=C(NCCc1cncnc1)c1csc2nc(-c3ccccn3)nc(N3CCOCC3)c12 [drawing 3673]
0 | 25 to 50 | 25 to 50 | O=C(NCCc1ccc(O)c(O)c1)c1csc2nc(-c3ccccn3)nc(N3CCOCC3)c12 [drawing 3674]
1 to 25 | 76 to 100 | 51 to 75 | O=C(NCCc1nnn[nH]1)c1csc2nc(-c3ccccn3)nc(N3CCOCC3)c12 [drawing 3675]
1 to 25 | 51 to 75 | 51 to 75 | N#Cc1cccc(CCNC(=O)c2csc3nc(-c4ccccn4)nc(N4CCOCC4)c23)c1 [drawing 3676]
1 to 25 | 76 to 100 | 51 to 75 | CN(CCc1cccc(C#N)c1)C(=O)c1csc2nc(-c3ccccn3)nc(N3CCOCC3)c12 [drawing 3677]
1 to 25 | 51 to 75 | 51 to 75 | COCCCCNC(=O)c1csc2nc(-c3ccccn3)nc(N3CCOCC3)c12 [drawing 3678]
1 to 25 | 76 to 100 | 51 to 75 | COCCCCN(C)C(=O)c1csc2nc(-c3ccccn3)nc(N3CCOCC3)c12 [drawing 3679]
1 to 25 | 76 to 100 | 51 to 75 | CNS(=O)(=O)CCCNC(=O)c1csc2nc(-c3ccccn3)nc(N3CCOCC3)c12 [drawing 3680]
1 to 25 | 51 to 75 | 51 to 75 | COCCN(CCOC)c1nc(-c2ccccn2)nc2scc(C(=O)NCCc3ccc(OC)nc3)c12 [drawing 3681]
0 | 76 to 100 | 51 to 75 | COCCCCNC(=O)c1csc2nc(-c3ccccn3)nc(N(CCOC)CCOC)c12 [drawing 3682]
1 to 25 | 76 to 100 | 51 to 75 | CC(C(=O)Nc1ccnc(-c2ccccn2)n1)c1ccc(C#N)cc1 (stereo not drawn) [drawing 3683]
1 to 25 | 51 to 75 | 51 to 75 | COc1ccc2c(c1)CCC2C(=O)Nc1ccnc(-c2ccccn2)n1 (stereo not drawn) [drawing 3684]
0 | 76 to 100 | 51 to 75 | N#Cc1ccc(COCC(=O)Nc2ccnc(-c3ccccn3)n2)cc1 [drawing 3685]
1 to 25 | 76 to 100 | 51 to 75 | Cc1cnc(-c2ccccn2)nc1NC(=O)C(C)c1ccc(C#N)cc1 (stereo not drawn) [drawing 3686]
1 to 25 | 76 to 100 | 76 to 100 | CC(C(=O)Nc1nc(-c2ccccn2)nc2sccc12)c1ccc(C#N)cc1 (stereo not drawn) [drawing 3687]
25 to 50 | 25 to 50 | 25 to 50 | COc1cnc(CN)[nH]c1=O [drawing 3690]
1 to 25 | 76 to 100 | 76 to 100 | COc1ccc(N2CCN(C(=O)c3csc4c(O)nc(-c5ccccn5)nc34)CC2)cc1O [drawing 3691]

Second part, the compound before the results:

Structure (SMILES) | inhibition at 20 µM [1] [%] | inhibition at 20 µM (Rac-1) [%] | inhibition at 20 µM (Rho-A) [%]
COc1ncc(CCNC(=O)c2csc3nc(-c4ccccn4)nc(N4CCOCC4)c23)cn1 [drawing 3637] | 1 to 25 | 51 to 75 | 51 to 75
O=C(NCCc1cncs1)c1csc2nc(-c3ccccn3)nc(N3CCOCC3)c12 [drawing 3638] | 1 to 25 | 51 to 75 | 25 to 50
N#Cc1ccc(CCNC(=O)c2csc3nc(-c4ccccn4)nc(N4CCOCC4)c23)cc1 [drawing 3639] | 1 to 25 | 25 to 50 | 25 to 50
CC(C)(C(=O)Nc1ccnc(-c2ccccn2)n1)c1ccc(C#N)cc1 [drawing 3640] | 1 to 25 | 51 to 75 | 25 to 50
CC(C)(C(=O)Nc1nc(-c2ccccn2)nc2sccc12)c1ccc(C#N)cc1 [drawing 3641] | 0 | 76 to 100 | 51 to 75
O=C(c1csc2c(O)nc(-c3ccccn3)nc12)N1CCN(c2cccc(F)c2)CC1 [drawing 3642] | 25 to 50 | 76 to 100 | 76 to 100
O=C(c1csc2c(O)nc(-c3ccccn3)nc12)N1CCN(c2ccc(F)cc2)CC1 [drawing 3643] | 0 | 51 to 75 | 51 to 75
N#Cc1cccc(N2CCN(C(=O)c3csc4c(O)nc(-c5ccccn5)nc34)CC2)c1 [drawing 3644] | 1 to 25 | 51 to 75 | 51 to 75
N#Cc1ccc(N2CCN(C(=O)c3csc4c(O)nc(-c5ccccn5)nc34)CC2)cc1 [drawing 3645] | 0 | 51 to 75 | 51 to 75
COc1cc(OC)cc(N2CCN(C(=O)c3csc4c(O)nc(-c5ccccn5)nc34)CC2)c1 [drawing 3646] | 0 | 25 to 50 | 25 to 50
COc1cc(N2CCN(C(=O)c3csc4c(O)nc(-c5ccccn5)nc34)CC2)cc(OC)c1OC [drawing 3647] | 0 | 1 to 25 | 25 to 50
COc1ccc(N2CCN(C(=O)c3csc4c(O)nc(-c5ccccn5)nc34)CC2)c(OC)c1 [drawing 3648] | 25 to 50 | 76 to 100 | 51 to 75
O=C(c1csc2c(O)nc(-c3ccccn3)nc12)N1CCN(c2ccc(F)cc2F)CC1 [drawing 3649] | 51 to 75 | 76 to 100 | 51 to 75
O=C(c1csc2c(O)nc(-c3ccccn3)nc12)N1CCN(Cc2ccccc2)CC1 [drawing 3651] | 25 to 50 | 51 to 75 | 76 to 100
O=C(c1csc2c(O)nc(-c3ccccn3)nc12)N1CCN(Cc2ccc(O)cc2)CC1 [drawing 3653] | 1 to 25 | 51 to 75 | 25 to 50
O=C(c1csc2c(O)nc(-c3ccccn3)nc12)N1CCN(Cc2ccc(O)c(Cl)c2)CC1 [drawing 3654] | 25 to 50 | 76 to 100 | 76 to 100
O=C(c1csc2c(O)nc(-c3ccccn3)nc12)N1CCOC(c2ccccc2)C1 (stereo not drawn) [drawing 3655] | 1 to 25 | 25 to 50 | 51 to 75
COc1ccccc1C1CN(C(=O)c2csc3c(O)nc(-c4ccccn4)nc23)CCO1 (stereo not drawn) [drawing 3656] | 51 to 75 | 76 to 100 | 76 to 100
COc1ccc(C2CN(C(=O)c3csc4c(O)nc(-c5ccccn5)nc34)CCO2)cc1 (stereo not drawn) [drawing 3657] | 25 to 50 | 25 to 50 | 25 to 50
Cc1ccccc1C1CN(C(=O)c2csc3c(O)nc(-c4ccccn4)nc23)CCN1 (stereo not drawn) [drawing 3664] | 25 to 50 | 76 to 100 | 76 to 100
O=C(c1csc2c(O)nc(-c3ccccn3)nc12)N1CCN(c2ccc(O)c(Cl)c2)CC1 [drawing 3692] | 51 to 75 | 76 to 100 | 76 to 100
CC(c1ccccc1)N1CCN(C(=O)c2csc3c(O)nc(-c4ccccn4)nc23)CC1 (stereo not drawn) [drawing 3693] | 51 to 75 | 76 to 100 | 76 to 100
